Test [1] has as its target T1, NK-1 receptor (Homo sapiens, UniProt P25103).
T1 construct: endogenous in cells; host or cells: IM9 cells (human cell line), whole cells
The test can be described thus: NK-1 Receptor Binding Assay (125I-labeled substance P, IM9 cells). As to conditions: inhibits fifty percent of binding of 125I-substance P to IM9 cells. How it is done:
The biological activity of the compounds of the present invention was evaluated employing an initial screening assay which rapidly and accurately measured the binding of the tested compound to known NK-1 and NK-2 receptor sites. Assays useful for evaluating tachykinin receptor antagonists are well known in the art.
NK-1 Receptor Binding Assay
Radioreceptor binding assays were performed using a derivative of a previously published protocol.
The IM9 cell line is a well-characterized and readily available human cell line.
The reaction was terminated by filtration through a glass fiber filter harvesting system using filters previously soaked for 20 minutes in 0.1% polyethylenimine. Specific binding of labeled substance P was determined in the presence of 20 nM unlabeled ligand.

For test [2], the target named is T2, human NK-2 receptor (Homo sapiens, UniProt P21452).
T2 construct: expressed in transfected cells; host or cells: CHO-hNK-2R cells (CHO-derived), membrane preparation
T2 sequence (P21452 1-398): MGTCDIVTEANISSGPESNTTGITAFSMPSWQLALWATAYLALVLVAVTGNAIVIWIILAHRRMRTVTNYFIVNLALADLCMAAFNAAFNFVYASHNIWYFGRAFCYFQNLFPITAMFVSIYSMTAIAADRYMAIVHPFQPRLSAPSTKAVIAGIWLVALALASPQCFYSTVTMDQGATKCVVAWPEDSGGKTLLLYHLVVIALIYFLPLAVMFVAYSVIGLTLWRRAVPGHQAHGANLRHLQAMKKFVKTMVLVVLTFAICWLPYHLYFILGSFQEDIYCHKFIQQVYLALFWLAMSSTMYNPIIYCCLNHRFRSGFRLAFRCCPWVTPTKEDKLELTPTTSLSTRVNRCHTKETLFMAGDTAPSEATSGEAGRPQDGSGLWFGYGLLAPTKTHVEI
The experiment in a line: NK-2 Receptor Binding Assay ([125I]iodohistidyl-neurokinin A, CHO-hNK-2R membranes). Conditions: for IC50: inhibits fifty percent of binding of [125I]iodohistidyl-neurokinin A to CHO-hNK-2R membranes. How it is done:
The biological activity of the compounds of the present invention was evaluated employing an initial screening assay which rapidly and accurately measured the binding of the tested compound to known NK-1 and NK-2 receptor sites. Assays useful for evaluating tachykinin receptor antagonists are well known in the art. See. e.g., J. Jukic, et al., Life Sciences, 49:1463-1469 (1991); N. Kucharczyk, et al., Journal of Medicinal Chemistry, 36:1654-1661 (1993); N. Rouissi, et al., Biochemical and Biophysical Research Communications, 176:894-901 (1991).
NK-2 Receptor Binding Assay
The CHO-hNK-2R cells, a CHO-derived cell line transformed with the human NK-2 receptor, expressing about 400,000 such receptors per cell, were grown in 75 cm^2 flasks or roller bottles in minimal essential medium (alpha modification) with 10% fetal bovine serum. The gene sequence of the human NK-2 receptor is given in N. P. Gerard, et al., Journal of Biological Chemistry, 265:20455-20462 (1990).
For preparation of membranes, 30 confluent roller bottle cultures were dissociated by washing each roller bottle with 10 ml of Dulbecco's phosphate buffered saline (PBS) without calcium and magnesium, followed by addition of 10 ml of enzyme-free cell dissociation solution (PBS-based, from Specialty Media, Inc.). After an additional 15 minutes, the dissociated cells were pooled and centrifuged at 1,000 RPM for 10 minutes in a clinical centrifuge. Membranes were prepared by homogenization of the cell pellets in 300 ml 50 mM Tris buffer, pH 7.4 with a Tekma® homogenizer for 10-15 seconds, followed by centrifugation at 12,000 RPM (20,000×g) for 30 minutes using a Beckman JA-14® rotor. The pellets were washed once using the above procedure. and the final pellets were resuspended in 100-120 ml 50 mM Tris buffer, pH 7.4, and 4 ml aliquots stored frozen at −70° C. The protein concentration of this preparation was 2 mg/ml.
For the receptor binding assay, one 4-ml aliquot of the CHO-hNK-2R membrane preparation was suspended in 40 ml of assay buffer containing 50 mM Tris, pH 7.4, 3 mM manganese chloride, 0.02% bovine serum albumin (BSA) and 4 μg/ml chymostatin. A 200 μl volume of the homogenate (40 μg protein) was used per sample. The radioactive ligand was [^125I]iodohistidyl-neurokinin A (New England Nuclear, NEX-252), 2200 Ci/mmol. The ligand was prepared in assay buffer at 20 nCi per 100 μl; the final concentration in the assay was 20 pM. Non-specific binding was determined using 1 μM eledoisin. Ten concentrations of eledoisin from 0.1 to 1000 nM were used for a standard concentration-response curve.
All samples and standards were added to the incubation in 10 μl dimethylsulfoxide (DMSO) for screening (single dose) or in 5 μl DMSO for IC50 determinations. The order of additions for incubation was 190 or 195 μl assay buffer, 200 μl homogenate, 10 or 5 μl sample in DMSO, 100 μl radioactive ligand. The samples were incubated 1 hr at room temperature and then filtered on a 48 well Brandel cell harvester through GF/B filters which had been presoaked for two hours in 50 mM Tris buffer, pH 7.7, containing 0.5% BSA. The filter was washed 3 times with approximately 3 ml of cold 50 mm Tris buffer, pH 7.7. The filter circles were then punched into 12×75 mm polystyrene tubes and counted in a gamma counter.

For orientation: IC50 means the concentration that gives 50% inhibition. The low end stands for greater potency in that assay, the high end for weaker potency in that assay.

T1 sequence (P25103 whole entry): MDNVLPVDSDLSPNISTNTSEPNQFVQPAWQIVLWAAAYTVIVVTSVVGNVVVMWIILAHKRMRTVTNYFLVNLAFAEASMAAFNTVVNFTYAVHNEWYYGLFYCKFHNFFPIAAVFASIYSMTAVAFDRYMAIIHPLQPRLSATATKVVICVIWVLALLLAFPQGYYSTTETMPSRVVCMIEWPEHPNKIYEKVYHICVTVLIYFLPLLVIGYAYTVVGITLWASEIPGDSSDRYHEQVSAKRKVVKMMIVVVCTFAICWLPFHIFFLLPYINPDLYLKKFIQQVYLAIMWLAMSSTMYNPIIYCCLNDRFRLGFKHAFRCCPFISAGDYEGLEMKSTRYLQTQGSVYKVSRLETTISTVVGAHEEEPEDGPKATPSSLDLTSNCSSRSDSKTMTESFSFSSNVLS

Take `COc1ccccc1CNCC(CC1CNc2ccccc21)NC(=O)CN1CCN(c2ccccc2)CC1` (mixture of isomers) [Example 137]: the IC50 in test [1] was determined as 220 nM; in test [2], 2700 nM.

For the compound `COc1ccccc1CN(CC(CC1CNc2ccccc21)NC(=O)CN1CCN(c2ccccc2)CC1)C(C)=O` (mixture of isomers) [Example 144], the IC50 is 52 nM in test [1] and 1200 nM in test [2].

As to `COc1ccccc1CN(CC(CC1CN(C(C)=O)c2ccccc21)NC(=O)CN1CCN(c2ccccc2)CC1)C(C)=O` (mixture of isomers) [Example 145], the IC50 in test [1] is 76 nM; in test [2], 1900 nM.

`COc1ccccc1CN(CC(Cc1c[nH]c2ccccc12)NC(=O)CN1CCN(c2ccccc2)CC1)C(C)=O` (racemic) [Example 17]: the IC50 in test [2] turned out to be 1600 nM.

`CC(=O)N(Cc1ccccc1Cl)CC(Cc1c[nH]c2ccccc12)NC(=O)CN1CCC(N2CCCCC2)CC1` (racemic) [Example 47]: the IC50 in test [1] was 0.25 nM; in test [2], 1800 nM.

For `COc1ccccc1CN(CC(Cc1c[nH]c2ccccc12)NC(=O)CN1CCC(N2CCCCC2)CC1)C(C)=O` (racemic) [Example 50], the IC50 in test [2] was 3400 nM.

As to `COc1ccccc1CN(CC(Cc1c[nH]c2ccccc12)NC(=O)CCc1ccccc1)C(C)=O` (racemic) [Example 89], the IC50 turned out to be 170 nM in test [1] and 1200 nM in test [2].

On to `COc1ccccc1CN(CC(Cc1c[nH]c2ccccc12)NC(=O)CCC(=O)c1ccccc1)C(C)=O` (racemic) [Example 95], for which the IC50 turned out to be 9.6 nM in test [1] and 1000 nM in test [2].

For `O=C(CN1CCN(c2ccccc2)CC1)NC(CNCc1ccccc1)Cc1c[nH]c2ccccc12` (stereo not shown) [Example 1], the values for the IC50 in test [1] and in test [2] were 53 nM and 1700 nM, respectively.

On to `COc1ccccc1CNCC(Cc1c[nH]c2ccccc12)NC(=O)CN1CCN(c2ccccc2)CC1` (stereo not shown) [Example 4], for which the IC50 was determined as 40 nM in test [1] and 1500 nM in test [2].

As to `CCN(Cc1ccccc1OC)CC(Cc1c[nH]c2ccccc12)NC(=O)CN1CCN(c2ccccc2)CC1` (stereo not shown) [Example 9], the IC50 was 84 nM in test [1] and 640 nM in test [2].

For the compound `COC(=O)CN(Cc1ccccc1OC)CC(Cc1c[nH]c2ccccc12)NC(=O)CN1CCN(c2ccccc2)CC1` (stereo not shown) [Example 10], the IC50 in test [1] stood at 19 nM; in test [2] it was 820 nM.

`COc1ccccc1CN(CC(=O)O)CC(Cc1c[nH]c2ccccc12)NC(=O)CN1CCN(c2ccccc2)CC1` (stereo not shown) [Example 11]: the results for the IC50 in test [1] and in test [2] were 65 nM and 2400 nM, respectively.

As to `CC(=O)N(Cc1ccccc1)CC(Cc1c[nH]c2ccccc12)NC(=O)CN1CCN(c2ccccc2)CC1` (stereo not shown) [Example 12], the IC50 in test [1] was 1.6 nM; in test [2], 1600 nM.

Turning to `CC(=O)N(Cc1ccccc1C)CC(Cc1c[nH]c2ccccc12)NC(=O)CN1CCN(c2ccccc2)CC1` (stereo not shown) [Example 14], the half-maximal inhibitory concentration (IC50) amounted to 3.1 nM in test [1] and 1000 nM in test [2].

`CC(=O)N(Cc1ccccc1[N+](=O)[O-])CC(Cc1c[nH]c2ccccc12)NC(=O)CN1CCN(c2ccccc2)CC1` (stereo not shown) [Example 16]: the results for the IC50 in test [1] and in test [2] were 4.2 nM and 1200 nM, respectively.

Consider `CC(=O)N(Cc1cccc(F)c1)CC(Cc1c[nH]c2ccccc12)NC(=O)CN1CCN(c2ccccc2)CC1` (stereo not shown) [Example 20], for which the IC50 is 6 nM in test [1] and 870 nM in test [2].

As for `COc1cccc(CN(CC(Cc2c[nH]c3ccccc23)NC(=O)CN2CCN(c3ccccc3)CC2)C(C)=O)c1` (stereo not shown) [Example 21], the IC50 in test [1] was 4.6 nM; in test [2], 1200 nM.

On to `COc1ccc(CN(CC(Cc2c[nH]c3ccccc23)NC(=O)CN2CCN(c3ccccc3)CC2)C(C)=O)cc1` (stereo not shown) [Example 22], for which the IC50 came to 2.1 nM in test [1] and 3300 nM in test [2].

Consider `CSc1ccc(CN(CC(Cc2c[nH]c3ccccc23)NC(=O)CN2CCN(c3ccccc3)CC2)C(C)=O)cc1` (stereo not shown) [Example 23], for which the IC50 turned out to be 13 nM in test [1] and 810 nM in test [2].

In the case of `COc1ccccc1CN(C=O)CC(Cc1c[nH]c2ccccc12)NC(=O)CN1CCN(c2ccccc2)CC1` (stereo not shown) [Example 24], the IC50 in test [1] was determined as 1.2 nM; in test [2], 640 nM.

Regarding `CCC(=O)N(Cc1ccccc1OC)CC(Cc1c[nH]c2ccccc12)NC(=O)CN1CCN(c2ccccc2)CC1` (stereo not shown) [Example 26], the half-inhibitory concentration (IC50) in test [1] worked out at 0.75 nM; in test [2] it was 650 nM.

Turning to `COc1ccccc1CN(CC(Cc1c[nH]c2ccccc12)NC(=O)CN1CCN(c2ccccc2)CC1)C(=O)c1ccccc1` (stereo not shown) [Example 27], the IC50 in test [1] amounted to 1.6 nM; in test [2] it was 710 nM.

As to `CCOC(=O)N(Cc1ccccc1OC)CC(Cc1c[nH]c2ccccc12)NC(=O)CN1CCN(c2ccccc2)CC1` (stereo not shown) [Example 28, 1-[N-ethoxycarbonyl-N-(2-methoxybenzyl)amino]-3-(1H-indol-3-yl)-2-[N-(2-((4-phenyl)piperazin-1-yl)acetyl)amino]propane], the figures for the IC50 in test [1] and in test [2] were 1.7 nM and 1000 nM, respectively.

For the compound `CNC(=O)N(Cc1ccccc1OC)CC(Cc1c[nH]c2ccccc12)NC(=O)CN1CCN(c2ccccc2)CC1` (stereo not shown) [Example 29, 3-(1H-indol-3-yl)-1-[N-(2-methoxybenzyl)-N-(methylaminocarbonyl)amino]-2-[N-(2-((4-phenyl)piperazin-1-yl)acetyl)amino]propane], the half-inhibitory concentration (IC50) stood at 1.5 nM in test [1] and 1500 nM in test [2].

On to `COC(=O)CC(=O)N(Cc1ccccc1OC)CC(Cc1c[nH]c2ccccc12)NC(=O)CN1CCN(c2ccccc2)CC1` (stereo not shown) [Example 30], for which the IC50 was found to be 1 nM in test [1] and 680 nM in test [2].

With `COc1ccccc1CN(CC(Cc1c[nH]c2ccccc12)NC(=O)CN1CCN(c2ccccc2)CC1)C(=O)CC(=O)O` (stereo not shown) [Example 31], the results for the IC50 in test [1] and in test [2] were 9.2 nM and 6200 nM, respectively.

`COc1ccccc1CN(CC(Cc1c[nH]c2ccccc12)NC(=O)CN1CCN(c2ccccc2)CC1)C(=O)COC(C)=O` (stereo not shown) [Example 32]: the IC50 in test [1] is 0.98 nM; in test [2], 1100 nM.

As to `COc1ccccc1CN(CC(Cc1c[nH]c2ccccc12)NC(=O)CN1CCN(c2ccccc2)CC1)C(=O)CO` (stereo not shown) [Example 33], the IC50 in test [1] came to 1.9 nM; in test [2], 670 nM.

As for `COc1ccccc1CN(CC(Cc1c[nH]c2ccccc12)NC(=O)CN1CCN(c2ccccc2)CC1)C(=O)CN` (stereo not shown) [Example 34], the IC50 turned out to be 6.2 nM in test [1] and 590 nM in test [2].

Take `COc1ccccc1CN(CC(Cc1c[nH]c2ccccc12)NC(=O)CN1CCN(c2ccccc2)CC1)C(=O)CN(C)C` (stereo not shown) [Example 35]: the IC50 in test [1] stood at 0.89 nM; in test [2], 600 nM.

Consider `O=C(NCC(Cc1ccccc1)NC(=O)c1ccccc1)c1ccccc1` (stereo not shown) [Example 163], for which the “NK-2 percent inhibition of binding” value in test [2] (@ 10 μM) amounted to 44% @.

The values above are taken from patent US6869957B1, “Non-peptide tachykinin receptor antagonists” (Eli Lilly and Company, priority 1993, dated 2005).
